Data published in publication PMC9218960 (ACS infectious diseases, 2020).
Where a chain is given by its changes, count along the chain named.

Tests used:
Assay in all cases: [3H]uridine uptake inhibition by purines in PfENT1-SNP-expressing yeast
Format in all cases: cell-based
[1] = biological target: T1, PfENT1 F36S (Plasmodium falciparum, UniProt Q8IDM6, F36S)
T1 sequence (Q8IDM6 1-422 F36S): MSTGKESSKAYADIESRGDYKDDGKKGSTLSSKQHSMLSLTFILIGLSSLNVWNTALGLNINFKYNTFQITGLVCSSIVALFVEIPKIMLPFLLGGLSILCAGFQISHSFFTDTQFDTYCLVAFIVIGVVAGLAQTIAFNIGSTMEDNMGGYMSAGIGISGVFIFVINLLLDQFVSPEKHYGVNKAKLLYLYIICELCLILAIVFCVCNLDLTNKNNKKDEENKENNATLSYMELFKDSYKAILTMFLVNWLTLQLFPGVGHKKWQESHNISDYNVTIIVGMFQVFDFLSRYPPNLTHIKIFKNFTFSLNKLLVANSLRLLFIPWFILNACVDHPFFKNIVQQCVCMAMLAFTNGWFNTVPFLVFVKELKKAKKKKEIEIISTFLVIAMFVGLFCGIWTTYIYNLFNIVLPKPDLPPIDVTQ

[2] = biological target: T2, PfENT1 F92I (Plasmodium falciparum, UniProt Q8IDM6, F92I)
T2 sequence (Q8IDM6 1-422 F92I): T1 sequence (Q8IDM6 1-422 F36S) with S36F, F92I

[3] = biological target: T3, PfENT1 Q284E (Plasmodium falciparum, UniProt Q8IDM6, Q284E)
T3 sequence (Q8IDM6 1-422 Q284E): T1 sequence (Q8IDM6 1-422 F36S) with S36F, Q284E

[4] = biological target: T4, PfENT1 V345I (Plasmodium falciparum, UniProt Q8IDM6, V345I)
T4 sequence (Q8IDM6 1-422 V345I): T1 sequence (Q8IDM6 1-422 F36S) with S36F, V345I

[5] = biological target: T5, PfENT1 A351S (Plasmodium falciparum, UniProt Q8IDM6, A351S)
T5 sequence (Q8IDM6 1-422 A351S): T1 sequence (Q8IDM6 1-422 F36S) with S36F, A351S

[6] = biological target: T6, PfENT1 F36S/V129I (Plasmodium falciparum, UniProt Q8IDM6, F36S/V129I)
T6 sequence (Q8IDM6 1-422 F36S/V129I): T1 sequence (Q8IDM6 1-422 F36S) with V129I

SMILES	IC50 [1] [µM]	IC50 [2] [µM]	IC50 [3] [µM]	IC50 [4] [µM]	IC50 [5] [µM]	IC50 [6] [µM]
Nc1ncnc2nc[nH]c12 [Adenine, adenine]	292 ± 21	176 ± 35	1070 ± 128	225 ± 17	1240 ± 142	333 ± 32
O=c1[nH]cnc2nc[nH]c12 [Hypoxanthine, hypoxanthine]	171 ± 25	207 ± 34	566 ± 133	161 ± 57	576 ± 270	107 ± 5
OC[C@H]1O[C@@H](n2cnc3c(O)ncnc32)[C@H](O)[C@@H]1O [Inosine, inosine]	24 ± 7	51 ± 14	18 ± 6	4 ± 0.2	26 ± 9	14 ± 2
